Assays:
[1] = Compatibility study API-excipient / API-API (total impurities by HPLC); assay type: physicochemical
Method: The column used was the Gemini C18 column (5.0 μm, 250 mm). […] The mobile phase was filtered through a 0.4 μm polypropylene membrane filter and degassed via sonication. […] The column and sample thermostats were set to 35 °C and 5 °C, respectively. […] The compatibility study was performed using appearance and impurity tests to confirm the interaction between each API and the excipient. Each API was mixed with mannitol, microcrystalline cellulose, lactose, silicified microcrystalline cellulose, calcium hydrogen phosphate anhydrous, pregelatinized starch, sodium starch glycolate, crospovidone, sodium croscarmellose, magnesium stearate, colloidal silicon dioxide, sodium stearyl fumarate, hydroxypropyl cellulose, calcium hydroxide, citric acid, and OPADRY II pink in a 1:1 (w/w) ratio and put into each clear glass vial.

[2] = cited from earlier work
[3] = oral; cited from earlier work
[4] = Equilibrium solubility test (HPLC); details: thermodynamic from solid
Method: The column used was an Agilent C18 column (5.0 μm, 4.6 × 150 mm). The mobile phase and diluted solution of the content and dissolution studies analyses were prepared with 0.5% triethylamine buffer (v/v, pH 6.8 adjusted with 85% phosphoric acid) and acetonitrile at a ratio of 7:3 (v/v). The mobile phase was filtered through a 0.45-μm polypropylene membrane filter and degassed via sonication. The wavelength, flow rate, and injection volume were set to 205 nm, 1.5 mL/min, and 20 μL, respectively. In the case of the content and dissolution studies, the mobile phase was constantly flowed for 18 min via an isocratic elution method and analyzed.
The equilibrium solubility test was used to calculate the input amount through the apparent solubility test result, and an excess of the API was placed in each beaker and stirred at 400 rpm. At 0, 12, and 24 h immediately after the overdose, 2 mL samples were taken and filtered through a 0.45-μm regenerated cellulose syringe filter. The supernatant of the filtered solution was taken and diluted with a content analysis diluted solution. […] A calibration test was performed, and the sample was diluted with a diluted solution and prepared at a concentration of 0.05–1 mg/mL.

[5] = Stability study of the APIs in pH buffers (total impurity by HPLC); assay type: physicochemical
Method: The column used was the Gemini C18 column (5.0 μm, 250 mm). Mobile phase A of the impurity study was prepared with KH2PO4 buffer (v/v, solution adjusted to pH 6.0 with 1 M KOH): acetonitrile: methanol = 85: 10: 5 (v/v/v), and mobile phase B was prepared with 90% acetonitrile. The mobile phase was filtered through a 0.4 μm polypropylene membrane filter and degassed via sonication. The diluted solution was prepared with KH2PO4 buffer (v/v, solution adjusted to pH 6.0 with 1 M KOH) and acetonitrile at a ratio of 7:3 (v/v). The wavelength, flow rate, and injection volume were set to 220 nm, 1.0 mL/min, and 20 μL, respectively. The column and sample thermostats were set to 35 °C and 5 °C, respectively. In the case of the impurity study, the analysis was performed by changing the composition of the mobile phase for 80 min using a gradient elution method for 80 min.
[…] […] We performed a calibration test, and the sample was diluted with a diluted solution and prepared at a concentration of 0.05–1 mg/mL.

In the case of `N[C@@H](CC(=O)N1CCn2c(nnc2C(F)(F)F)C1)Cc1cc(F)c(F)cc1F.O.O=P(O)(O)O` [Sitagliptin, (R)-3-Amino-1-(3-(trifluoromethyl)-5,6-dihydro-[1,2,4]triazolo[4,3-a]pyrazin-7(8H)-yl)-4-(2,4,5-trifluorophenyl)butan-1-one phosphate monohydrate], the “Total Impurities” value ([1]; 20 ± 2 °C/60 ± 5% RH, 2 Weeks) is reported as 0.00%, the “Total Impurities” value ([1]; 20 ± 2 °C/60 ± 5% RH, 4 Weeks) is reported as 0.00% and the “Total Impurities” value ([1]; 40 ± 2 °C/75 ± 5% RH, 2 Weeks) is reported as 0.00%. For the same molecule, the “Total Impurities” value ([1]; 40 ± 2 °C/75 ± 5% RH, 4 Weeks) was 0.00%, the “Total Impurities” value ([1]; Initial) was 0.00% and the “biopharmaceutics classification system (BCS)” value [2] was “Class 1”. The bioavailability [3] was “approximately 87%”, the solubility thermodynamic at 12 h ([4]; pH 1.2, aqueous buffer) was 1940 µg/mL and the solubility thermodynamic at 24 h ([4]; pH 1.2, aqueous buffer) was 1940 µg/mL. For the same molecule, the solubility thermodynamic at 12 h ([4]; pH 2, aqueous buffer) was 3110 µg/mL, the solubility thermodynamic at 24 h ([4]; pH 2, aqueous buffer) was 3110 µg/mL and the solubility thermodynamic at 12 h ([4]; pH 3, aqueous buffer) was 1700 µg/mL. It also gave a solubility thermodynamic at 24 h ([4]; pH 3, aqueous buffer) of 1700 µg/mL, a solubility thermodynamic at 12 h ([4]; pH 4, aqueous buffer) of 1610 µg/mL and a solubility thermodynamic at 24 h ([4]; pH 4, aqueous buffer) of 1610 µg/mL. The solubility thermodynamic at 12 h ([4]; pH 5, aqueous buffer) was 1510 µg/mL, the solubility thermodynamic at 24 h ([4]; pH 5, aqueous buffer) was 1520 µg/mL and the solubility thermodynamic at 12 h ([4]; pH 6, aqueous buffer) was 1160 µg/mL. For the same molecule, the solubility thermodynamic at 24 h ([4]; pH 6, aqueous buffer) was 1160 µg/mL, the solubility thermodynamic at 12 h ([4]; pH 6.8, aqueous buffer) was 2670 µg/mL and the solubility thermodynamic at 12 h ([4]; pH 7, aqueous buffer) was 2760 µg/mL. The solubility thermodynamic at 24 h ([4]; pH 7, aqueous buffer) was 2760 µg/mL, the solubility thermodynamic at 12 h ([4]; pH 8, aqueous buffer) was 1420 µg/mL and the solubility thermodynamic at 24 h ([4]; pH 8, aqueous buffer) was 1430 µg/mL. It also gave a solubility thermodynamic at 12 h ([4]; pH 9, aqueous buffer) of 1500 µg/mL, a solubility thermodynamic at 24 h ([4]; pH 9, aqueous buffer) of 1500 µg/mL and a solubility thermodynamic at 12 h ([4]; pH 10, aqueous buffer) of 960 µg/mL. The solubility thermodynamic at 24 h ([4]; pH 10, aqueous buffer) was 970 µg/mL, the solubility thermodynamic at 12 h ([4]; pH 11, aqueous buffer) was 1440 µg/mL and the solubility thermodynamic at 24 h ([4]; pH 11, aqueous buffer) was 1440 µg/mL. It also gave a solubility thermodynamic at 12 h ([4]; pH 12, aqueous buffer) of 1610 µg/mL, a solubility thermodynamic at 24 h ([4]; pH 12, aqueous buffer) of 1600 µg/mL and a solubility thermodynamic at 12 h ([4]; water) of 1420 µg/mL. For the same molecule, the solubility thermodynamic at 24 h ([4]; water) was 1420 µg/mL, the “Total Impurity” value ([5]; pH 1.2 buffer, 20 ± 2 °C/60 ± 5% RH, 3 Days) was 0.01% and the “Total Impurity” value ([5]; pH 1.2 buffer, 20 ± 2 °C/60 ± 5% RH, 7 Days) was 0.09%. The “Total Impurity” value ([5]; pH 1.2 buffer, 40 ± 2 °C/75 ± 5% RH, 3 Days) was 0.02%, the “Total Impurity” value ([5]; pH 1.2 buffer, 40 ± 2 °C/75 ± 5% RH, 7 Days) was 0.14% and the “Total Impurity” value ([5]; pH 1.2 buffer, Initial) was 0.02%. The “Total Impurity” value ([5]; pH 2.0 buffer, 20 ± 2 °C/60 ± 5% RH, 3 Days) was 0.03%, the “Total Impurity” value ([5]; pH 2.0 buffer, 20 ± 2 °C/60 ± 5% RH, 7 Days) was 0.23% and the “Total Impurity” value ([5]; pH 2.0 buffer, 40 ± 2 °C/75 ± 5% RH, 3 Days) was 0.08%. The “Total Impurity” value ([5]; pH 2.0 buffer, 40 ± 2 °C/75 ± 5% RH, 7 Days) was 0.59%, the “Total Impurity” value ([5]; pH 2.0 buffer, Initial) was 0.02% and the “Total Impurity” value ([5]; pH 3.0 buffer, 20 ± 2 °C/60 ± 5% RH, 3 Days) was 0.08%. For the same molecule, the “Total Impurity” value ([5]; pH 3.0 buffer, 20 ± 2 °C/60 ± 5% RH, 7 Days) was 1.42%, the “Total Impurity” value ([5]; pH 3.0 buffer, 40 ± 2 °C/75 ± 5% RH, 3 Days) was 0.37% and the “Total Impurity” value ([5]; pH 3.0 buffer, 40 ± 2 °C/75 ± 5% RH, 7 Days) was 5.64%. For the same molecule, the “Total Impurity” value ([5]; pH 3.0 buffer, Initial) was 0.08%, the “Total Impurity” value ([5]; pH 4.0 buffer, 20 ± 2 °C/60 ± 5% RH, 3 Days) was 0.00% and the “Total Impurity” value ([5]; pH 4.0 buffer, 20 ± 2 °C/60 ± 5% RH, 7 Days) was 0.01%. The “Total Impurity” value ([5]; pH 4.0 buffer, 40 ± 2 °C/75 ± 5% RH, 3 Days) was 0.00%, the “Total Impurity” value ([5]; pH 4.0 buffer, 40 ± 2 °C/75 ± 5% RH, 7 Days) was 0.02% and the “Total Impurity” value ([5]; pH 4.0 buffer, Initial) was 0.02%. The “Total Impurity” value ([5]; pH 5.0 buffer, 20 ± 2 °C/60 ± 5% RH, 3 Days) was 0.00%, the “Total Impurity” value ([5]; pH 5.0 buffer, 20 ± 2 °C/60 ± 5% RH, 7 Days) was 0.03% and the “Total Impurity” value ([5]; pH 5.0 buffer, 40 ± 2 °C/75 ± 5% RH, 3 Days) was 0.00%. For the same molecule, the “Total Impurity” value ([5]; pH 5.0 buffer, 40 ± 2 °C/75 ± 5% RH, 7 Days) was 0.03%, the “Total Impurity” value ([5]; pH 5.0 buffer, Initial) was 0.03% and the “Total Impurity” value ([5]; pH 6.0 buffer, 20 ± 2 °C/60 ± 5% RH, 3 Days) was 0.00%. The “Total Impurity” value ([5]; pH 6.0 buffer, 20 ± 2 °C/60 ± 5% RH, 7 Days) was 0.03%, the “Total Impurity” value ([5]; pH 6.0 buffer, 40 ± 2 °C/75 ± 5% RH, 3 Days) was 0.01% and the “Total Impurity” value ([5]; pH 6.0 buffer, 40 ± 2 °C/75 ± 5% RH, 7 Days) was 0.06%. The “Total Impurity” value ([5]; pH 6.0 buffer, Initial) was 0.05%, the “Total Impurity” value ([5]; pH 6.8 buffer, 20 ± 2 °C/60 ± 5% RH, 3 Days) was 0.01% and the “Total Impurity” value ([5]; pH 6.8 buffer, 20 ± 2 °C/60 ± 5% RH, 7 Days) was 0.06%. The “Total Impurity” value ([5]; pH 6.8 buffer, 40 ± 2 °C/75 ± 5% RH, 3 Days) was 0.00%, the “Total Impurity” value ([5]; pH 6.8 buffer, 40 ± 2 °C/75 ± 5% RH, 7 Days) was 0.03% and the “Total Impurity” value ([5]; pH 6.8 buffer, Initial) was 0.04%. The “Total Impurity” value ([5]; pH 7.0 buffer, 20 ± 2 °C/60 ± 5% RH, 3 Days) was 0.00%, the “Total Impurity” value ([5]; pH 7.0 buffer, 20 ± 2 °C/60 ± 5% RH, 7 Days) was 0.03% and the “Total Impurity” value ([5]; pH 7.0 buffer, 40 ± 2 °C/75 ± 5% RH, 3 Days) was 0.00%. For the same molecule, the “Total Impurity” value ([5]; pH 7.0 buffer, 40 ± 2 °C/75 ± 5% RH, 7 Days) was 0.03%, the “Total Impurity” value ([5]; pH 7.0 buffer, Initial) was 0.00% and the “Total Impurity” value ([5]; pH 8.0 buffer, 20 ± 2 °C/60 ± 5% RH, 3 Days) was 0.01%. The “Total Impurity” value ([5]; pH 8.0 buffer, 20 ± 2 °C/60 ± 5% RH, 7 Days) was 0.03%, the “Total Impurity” value ([5]; pH 8.0 buffer, 40 ± 2 °C/75 ± 5% RH, 3 Days) was 0.00% and the “Total Impurity” value ([5]; pH 8.0 buffer, 40 ± 2 °C/75 ± 5% RH, 7 Days) was 0.03%. The “Total Impurity” value ([5]; pH 8.0 buffer, Initial) was 0.06%, the “Total Impurity” value ([5]; pH 9.0 buffer, 20 ± 2 °C/60 ± 5% RH, 3 Days) was 0.00% and the “Total Impurity” value ([5]; pH 9.0 buffer, 20 ± 2 °C/60 ± 5% RH, 7 Days) was 0.00%. The “Total Impurity” value ([5]; pH 9.0 buffer, 40 ± 2 °C/75 ± 5% RH, 3 Days) was 0.00%, the “Total Impurity” value ([5]; pH 9.0 buffer, 40 ± 2 °C/75 ± 5% RH, 7 Days) was 0.03% and the “Total Impurity” value ([5]; pH 9.0 buffer, Initial) was 0.00%. For the same molecule, the “Total Impurity” value ([5]; pH 10.0 buffer, 20 ± 2 °C/60 ± 5% RH, 3 Days) was 0.00%, the “Total Impurity” value ([5]; pH 10.0 buffer, 20 ± 2 °C/60 ± 5% RH, 7 Days) was 0.03% and the “Total Impurity” value ([5]; pH 10.0 buffer, 40 ± 2 °C/75 ± 5% RH, 3 Days) was 0.00%. For the same molecule, the “Total Impurity” value ([5]; pH 10.0 buffer, 40 ± 2 °C/75 ± 5% RH, 7 Days) was 0.03%, the “Total Impurity” value ([5]; pH 10.0 buffer, Initial) was 0.02% and the “Total Impurity” value ([5]; pH 11.0 buffer, 20 ± 2 °C/60 ± 5% RH, 3 Days) was 0.00%. The “Total Impurity” value ([5]; pH 11.0 buffer, 20 ± 2 °C/60 ± 5% RH, 7 Days) was 0.03%, the “Total Impurity” value ([5]; pH 11.0 buffer, 40 ± 2 °C/75 ± 5% RH, 3 Days) was 0.00% and the “Total Impurity” value ([5]; pH 11.0 buffer, 40 ± 2 °C/75 ± 5% RH, 7 Days) was 0.04%. For the same molecule, the “Total Impurity” value ([5]; pH 11.0 buffer, Initial) was 0.04%, the “Total Impurity” value ([5]; pH 12.0 buffer, 20 ± 2 °C/60 ± 5% RH, 3 Days) was 0.00% and the “Total Impurity” value ([5]; pH 12.0 buffer, 20 ± 2 °C/60 ± 5% RH, 7 Days) was 0.03%. The “Total Impurity” value ([5]; pH 12.0 buffer, 40 ± 2 °C/75 ± 5% RH, 3 Days) was 0.00%, the “Total Impurity” value ([5]; pH 12.0 buffer, 40 ± 2 °C/75 ± 5% RH, 7 Days) was 0.03% and the “Total Impurity” value ([5]; pH 12.0 buffer, Initial) was 0.03%.
